Data published in US11130778B2, “CD73 inhibitors” (ORIC Pharmaceuticals, Inc., priority 2019, dated 2021).

target: T1, CD73 (Homo sapiens, UniProt P21589); test: Biochemical assay of CD73 inhibition (Malachite Green); settings: CD73 0.3208 nM, AMP 15 μM, Tris-HCl pH 7.4, Malachite Green absorbance readout; read-out: CD73_Biochem
T1 sequence (P21589 27-549): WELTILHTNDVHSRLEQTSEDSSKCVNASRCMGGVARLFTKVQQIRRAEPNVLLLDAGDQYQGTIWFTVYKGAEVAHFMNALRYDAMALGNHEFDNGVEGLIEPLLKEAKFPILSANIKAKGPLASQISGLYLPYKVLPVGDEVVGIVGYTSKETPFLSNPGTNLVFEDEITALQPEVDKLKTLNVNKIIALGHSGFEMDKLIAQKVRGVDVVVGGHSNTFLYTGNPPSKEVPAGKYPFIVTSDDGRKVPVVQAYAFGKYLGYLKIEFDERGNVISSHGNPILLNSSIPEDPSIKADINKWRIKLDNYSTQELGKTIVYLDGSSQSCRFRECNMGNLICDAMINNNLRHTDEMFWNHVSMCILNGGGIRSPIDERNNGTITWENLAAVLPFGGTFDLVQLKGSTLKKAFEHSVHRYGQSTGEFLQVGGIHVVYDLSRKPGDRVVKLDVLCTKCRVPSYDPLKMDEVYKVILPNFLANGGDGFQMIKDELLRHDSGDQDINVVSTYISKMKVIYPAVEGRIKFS
Summary of the method: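 CD73 (0.3208 nM) preincubated with compound 15 min at RT in 25 mM Tris-HCl pH 7.4, 5 mM MgCl2, 0.01% Brij-35, 0.01% BSA, then AMP (15 μM) added for 10 min at RT. Released phosphate detected by Malachite Green absorbance. IC50 from 10-point ½-log titrations starting at 100 μM, in duplicate.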

IC50, ≤ 10 nM:
O=P(O)(O)C(COCc1nnn[nH]1)(COCC1CC1)OC[C@H]1O[C@@H](n2ncc3c(NC4CCCC4)nc(Cl)nc32)[C@H](O)[C@@H]1O (stereo in doubt) [Example 44, ((R)-1-((1H-tetrazol-5-yl)methoxy)-2-(((2R,3S,4R,5R)-5-(6-chloro-4-(cyclopentylamino)-1H-pyrazolo[3,4-d]pyrimidin-1-yl)-3,4-dihydroxytetrahydrofuran-2-yl)methoxy)-3-(cyclopropylmethoxy)propan-2-yl)phosphonic acid]
COC[C@@](CC(=O)NO)(OC[C@H]1O[C@@H](n2ncc3c(NC4CCCC4)nc(Cl)nc32)[C@H](O)[C@@H]1O)P(=O)(O)O [Example 7, ((S)-2-(((2R,3S,4R,5R)-5-(6-chloro-4-(cyclopentylamino)-1H-pyrazolo[3,4-d]pyrimidin-1-yl)-3,4-dihydroxytetrahydrofuran-2-yl)methoxy)-4-(hydroxyamino)-1-methoxy-4-oxobutan-2-yl)phosphonic acid]
O=P(O)(O)[C@](CO)(Cc1nn[nH]n1)OC[C@H]1O[C@@H](n2ncc3c(NCC4CCC4)nc(Cl)nc32)[C@H](O)[C@@H]1O [Example 19, ((S)-2-(((2R,3S,4R,5R)-5-(6-chloro-4-((cyclobutylmethyl)amino)-1H-pyrazolo[3,4-d]pyrimidin-1-yl)-3,4-dihydroxytetrahydrofuran-2-yl)methoxy)-1-hydroxy-3-(2H-tetrazol-5-yl)propan-2-yl)phosphonic acid]
O=P(O)(O)[C@@](CO)(COCc1nn[nH]n1)OC[C@H]1O[C@@H](n2ncc3c(NC4CCC4)nc(Cl)nc32)[C@H](O)[C@@H]1O [Example 55, ((S)-1-((2H-tetrazol-5-yl)methoxy)-2-(((2R,3S,4R,5R)-5-(6-chloro-4-(cyclobutylamino)-1H-pyrazolo[3,4-d]pyrimidin-1-yl)-3,4-dihydroxytetrahydrofuran-2-yl)methoxy)-3-hydroxypropan-2-yl)phosphonic acid]
